Reference: the NIST ThermoML archive (doi:10.1021/acs.jced.7b00335)
Numbers after ± are expanded uncertainties.

Columns and labels:
[1] = 100 kPa, Liquid; for viscosity: Concentric cylinders viscometry; for mass density: Vibrating tube method
[2] = xn = mol fraction of the nth substance listed; conditions: 100 kPa, Liquid, x2 = 0; for viscosity: Concentric cylinders viscometry; for mass density: Vibrating tube method

| Compound | viscosity ([1]; 293.15 K) | mass density ([1]; 293.15 K) | viscosity ([1]; 298.15 K) | mass density ([1]; 298.15 K) | viscosity ([1]; 303.15 K) | mass density ([1]; 303.15 K) | viscosity ([1]; 308.15 K) | mass density ([1]; 308.15 K) | viscosity ([1]; 313.15 K) | mass density ([1]; 313.15 K) | viscosity ([1]; 318.15 K) | mass density ([1]; 318.15 K) | viscosity ([1]; 323.15 K) | mass density ([1]; 323.15 K) | viscosity ([2]; 293.15 K) | mass density ([2]; 293.15 K) | viscosity ([2]; 298.15 K) | mass density ([2]; 298.15 K) | viscosity ([2]; 303.15 K) | mass density ([2]; 303.15 K) | also measured |
| --- | --- | --- | --- | --- | --- | --- | --- | --- | --- | --- | --- | --- | --- | --- | --- | --- | --- | --- | --- | --- | --- |
| CCC(C)O (stereo not drawn) [butan-2-ol] | 3.67 ± 0.15 mPa·s | 806.7 ± 1 kg/m3 | 3.04 ± 0.12 mPa·s | 802.7 ± 1 kg/m3 | 2.54 ± 0.1 mPa·s | 798.4 ± 1 kg/m3 | 2.13 ± 0.09 mPa·s | 794.1 ± 1 kg/m3 | 1.8 ± 0.07 mPa·s | 789.8 ± 1 kg/m3 | 1.54 ± 0.06 mPa·s | 785.2 ± 1 kg/m3 | 1.33 ± 0.05 mPa·s | 780.6 ± 1 kg/m3 |  |  |  |  |  |  |  |
| CC(C)O [propan-2-ol] + O=Cc1ccccc1 |  |  |  |  |  |  |  |  |  |  |  |  |  |  | 2.42 ± 0.1 mPa·s | 785.4 ± 1 kg/m3 | 2.08 ± 0.08 mPa·s | 781.1 ± 1 kg/m3 | 1.8 ± 0.07 mPa·s | 776.8 ± 1 kg/m3 | viscosity ([2]; 308.15 K): 1.56 ± 0.06 mPa·s; mass density ([2]; 308.15 K): 772.4 ± 1 kg/m3; viscosity ([2]; 313.15 K): 1.36 ± 0.06 mPa·s; mass density ([2]; 313.15 K): 768 ± 1 kg/m3; viscosity ([2]; 318.15 K): 1.19 ± 0.05 mPa·s; mass density ([2]; 318.15 K): 763.4 ± 1 kg/m3; viscosity ([2]; 323.15 K): 1.05 ± 0.04 mPa·s; mass density ([2]; 323.15 K): 758.8 ± 1 kg/m3 |
| O=Cc1ccccc1 [benzaldehyde] | 1.52 ± 0.06 mPa·s | 1046.3 ± 1 kg/m3 | 1.41 ± 0.06 mPa·s | 1041.7 ± 1 kg/m3 | 1.31 ± 0.05 mPa·s | 1037.1 ± 1 kg/m3 | 1.22 ± 0.05 mPa·s | 1032.4 ± 1 kg/m3 | 1.15 ± 0.05 mPa·s | 1027.9 ± 1 kg/m3 | 1.09 ± 0.04 mPa·s | 1023.4 ± 1 kg/m3 | 1.03 ± 0.04 mPa·s | 1019.1 ± 1 kg/m3 |  |  |  |  |  |  |  |
| CC(C)O [propan-2-ol] | 2.42 ± 0.1 mPa·s | 785.4 ± 1 kg/m3 | 2.08 ± 0.08 mPa·s | 781.1 ± 1 kg/m3 | 1.8 ± 0.07 mPa·s | 776.8 ± 1 kg/m3 | 1.56 ± 0.06 mPa·s | 772.4 ± 1 kg/m3 | 1.36 ± 0.06 mPa·s | 768 ± 1 kg/m3 | 1.19 ± 0.05 mPa·s | 763.4 ± 1 kg/m3 | 1.05 ± 0.04 mPa·s | 758.8 ± 1 kg/m3 |  |  |  |  |  |  |  |
| CCCC(C)O (stereo not drawn) [pentan-2-ol] | 3.97 ± 0.16 mPa·s | 809.3 ± 1 kg/m3 | 3.32 ± 0.13 mPa·s | 805.3 ± 1 kg/m3 | 2.81 ± 0.11 mPa·s | 801.2 ± 1 kg/m3 | 2.37 ± 0.1 mPa·s | 797 ± 1 kg/m3 | 1.99 ± 0.08 mPa·s | 792.7 ± 1 kg/m3 | 1.66 ± 0.07 mPa·s | 788.4 ± 1 kg/m3 | 1.39 ± 0.06 mPa·s | 784 ± 1 kg/m3 |  |  |  |  |  |  |  |
| CCC(C)O (stereo not drawn) [butan-2-ol] + O=Cc1ccccc1 |  |  |  |  |  |  |  |  |  |  |  |  |  |  | 3.67 ± 0.15 mPa·s | 806.7 ± 1 kg/m3 | 3.04 ± 0.12 mPa·s | 802.7 ± 1 kg/m3 | 2.54 ± 0.1 mPa·s | 798.4 ± 1 kg/m3 | viscosity ([2]; 308.15 K): 2.13 ± 0.09 mPa·s; mass density ([2]; 308.15 K): 794.1 ± 1 kg/m3; viscosity ([2]; 313.15 K): 1.8 ± 0.07 mPa·s; mass density ([2]; 313.15 K): 789.8 ± 1 kg/m3; viscosity ([2]; 318.15 K): 1.54 ± 0.06 mPa·s; mass density ([2]; 318.15 K): 785.2 ± 1 kg/m3; viscosity ([2]; 323.15 K): 1.33 ± 0.05 mPa·s; mass density ([2]; 323.15 K): 780.6 ± 1 kg/m3 |
| CCCC(C)O (stereo not drawn) [pentan-2-ol] + O=Cc1ccccc1 |  |  |  |  |  |  |  |  |  |  |  |  |  |  | 3.97 ± 0.16 mPa·s | 809.3 ± 1 kg/m3 | 3.32 ± 0.13 mPa·s | 805.3 ± 1 kg/m3 | 2.81 ± 0.11 mPa·s | 801.2 ± 1 kg/m3 | viscosity ([2]; 308.15 K): 2.37 ± 0.1 mPa·s; mass density ([2]; 308.15 K): 797 ± 1 kg/m3; viscosity ([2]; 313.15 K): 1.99 ± 0.08 mPa·s; mass density ([2]; 313.15 K): 792.7 ± 1 kg/m3; viscosity ([2]; 318.15 K): 1.66 ± 0.07 mPa·s; mass density ([2]; 318.15 K): 788.4 ± 1 kg/m3; viscosity ([2]; 323.15 K): 1.39 ± 0.06 mPa·s; mass density ([2]; 323.15 K): 784 ± 1 kg/m3 |
